Reference: the supplement of paper PMC10307832

Tests used:
Test in all cases: relative viability (nuclei count vs DMSO), 5 days (fraction); higher = more cells survive
[1] = compound: COC1=C(C=C(C=C1)C2=CC3=NC=CN3C(=N2)NC4=C(C=CC=N4)C(=O)N)OC [BAY61-3606] + Nc1nc2[nH]cc(CCc3ccc(C(=O)N[C@@H](CCC(=O)O)C(=O)O)cc3)c2c(=O)[nH]1 [Pemetrexed] (partner 0.2 µM)
Outline: (§1)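 Each reported value is a median over duplicate plates. It expresses relative viability: treated-well nuclei count divided by vehicle-well nuclei count. Lung cancer cell lines in 1536-well plates were dosed by pin tool a day after seeding, alone with one drug or with a fixed anchor-drug dose plus five library-drug doses (not always all listed) in √10 steps, and nuclei were counted after 5 days.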

[2] = compound: COc1cccc2c1C(=O)c1c(O)c3c(c(O)c1C2=O)C[C@@](O)(C(=O)CO)C[C@@H]3O[C@H]1C[C@H](N)[C@H](O)[C@H](C)O1 [Doxorubicin] + N=C(N)NC(=N)NCCc1ccccc1 [Phenformin] (partner 250 µM)
Outline: as §1

[3] = compound: COC1=C(C=C(C=C1)C2=CC3=NC=CN3C(=N2)NC4=C(C=CC=N4)C(=O)N)OC [BAY61-3606] + NC(=O)Nc1cc(-c2cccc(F)c2)sc1C(=O)N[C@H]1CCCNC1 [AZD7762] (partner 0.2 µM)
Outline: as §1

[4] = compound: COC1=C(C=C(C=C1)C2=CC3=NC=CN3C(=N2)NC4=C(C=CC=N4)C(=O)N)OC [BAY61-3606] + Cc1cc(Nc2cc(N3CCN(C)CC3)nc(Sc3ccc(NC(=O)C4CC4)cc3)n2)n[nH]1 [Tozasertib] (partner 0.1 µM)
Outline: as §1

Cell Line	relative viability ([1]; first compound 0.02 µM)	relative viability ([1]; first compound 0.06325 µM)	relative viability ([1]; first compound 0.2 µM)	relative viability ([1]; first compound 0.6325 µM)	relative viability ([1]; first compound 2 µM)	relative viability ([2]; first compound 0.001 µM)	relative viability ([2]; first compound 0.003162 µM)	relative viability ([2]; first compound 0.01 µM)	relative viability ([2]; first compound 0.03162 µM)	relative viability ([2]; first compound 0.1 µM)	relative viability ([3]; first compound 0.02 µM)	relative viability ([3]; first compound 0.06325 µM)	relative viability ([3]; first compound 0.2 µM)	relative viability ([3]; first compound 0.6325 µM)	relative viability ([3]; first compound 2 µM)	relative viability ([4]; first compound 0.02 µM)	relative viability ([4]; first compound 0.06325 µM)	relative viability ([4]; first compound 0.2 µM)	relative viability ([4]; first compound 0.6325 µM)	relative viability ([4]; first compound 2 µM)
NCI-H1395	1.04	0.659	0.72	0.899	0.73	0.43	0.44	0.447	0.414	0.449	0.393	0.411	0.424	0.42	0.393	0.722	0.679	0.682	0.781	0.411
NCI-H1437	0.333	0.342	0.33	0.31	0.346	0.317	0.269	0.242	0.256	0.158	1.14	1.08	1.17	1.21	1.12	0.402	0.391	0.428	0.416	0.374
NCI-H1651	0.608	0.544	0.492	0.537	0.531	0.319	0.336	0.259	0.154	0.153	0.517	0.454	0.463	0.52	0.498	0.726	0.488	0.503	0.55	0.356
NCI-H1666	0.84	0.911	0.81	0.973	0.909	0.604	0.504	0.481	0.368	0.337	0.917	0.895	0.852	0.834	0.82	0.6	0.572	0.492	0.473	0.458
NCI-H1734	0.401	0.409	0.383	0.358	0.354	0.385	0.413	0.356	0.262	0.261	0.554	0.508	0.557	0.502	0.374	0.238	0.243	0.222	0.227	0.196
NCI-H1755	0.488	0.4	0.411	0.419	0.562	0.612	0.642	0.618	0.675	0.626	0.439	0.483	0.462	0.422	0.59	0.681	0.422	0.49	0.438	0.403
NCI-H1793	0.983	0.88	0.896	1.13	1.08	–	0.291	0.355	0.334	0.429	0.483	0.277	0.448	0.636	0.504	0.313	0.227	–	0.203	0.222
NCI-H1915	0.546	0.544	0.488	0.447	0.453	0.354	0.355	0.367	0.375	0.353	0.658	0.708	0.641	0.659	0.66	0.416	0.329	0.365	0.277	0.152
NCI-H1944	0.677	0.565	0.644	0.583	0.518	0.182	0.224	0.206	0.177	0.172	0.477	0.533	0.635	0.592	0.485	0.256	0.224	0.239	0.249	0.215
NCI-H1975	0.288	0.289	0.308	0.269	0.247	0.397	0.422	0.383	0.219	0.179	0.706	0.603	0.621	0.654	0.348	0.763	0.521	0.323	0.257	0.11
NCI-H1993	0.642	0.564	0.541	0.57	0.461	0.508	0.494	0.455	0.491	0.453	0.823	0.824	0.614	0.869	0.739	0.521	0.582	0.621	0.59	0.577
NCI-H2085	0.984	0.946	0.861	1.08	0.898	0.733	0.709	0.653	0.545	0.478	1.01	1.08	0.969	1.1	0.942	0.809	0.531	0.546	0.481	0.345
NCI-H2087	0.578	0.685	0.682	0.625	0.588	–	0.45	0.405	0.273	0.247	1.31	1.43	1.35	1.23	0.959	0.223	0.253	0.166	0.176	0.157
NCI-H2126	0.708	0.654	0.639	0.713	0.58	0.556	0.531	0.475	0.299	0.273	1.06	1.09	0.999	1.02	0.954	0.895	0.485	0.801	0.945	0.331
NCI-H2170	0.285	0.268	0.278	0.258	0.269	0.379	0.388	0.411	0.485	0.432	0.895	0.913	0.885	0.85	0.585	0.714	0.475	0.751	0.607	0.213
NCI-H2342	0.748	0.774	0.716	0.825	0.811	0.638	0.54	0.527	0.552	0.553	0.459	0.496	0.416	0.726	0.586	0.574	0.466	0.47	0.668	0.525
